Reference: patent US20240158370A1, “CK1 alpha AND DUAL CK1 alpha / GSPT1 DEGRADING COMPOUNDS” (Innovo Therapeutics, Inc., priority 2022, published 2024)

Legend:
GSPT1 = GSPT1 (Homo sapiens, UniProt P15170+Q96SW2); experiment: HiBiT degradation assay, GSPT1, Procedure A; type: cell-based; design: HiBit-GSPT1 KI HEK293(LgBit) Cells; host or cells: HEK293(LgBit) knock-in cells; settings: six hours incubation
Procedure, shortened: (§1)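 Six-hour treatment at 37° C, ten doses between 10 μM and 0.005 μM, then HiBiT lytic luminescence. Fitted DC50 and Ymin.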

CK1α = target: T1, CK1α (Homo sapiens, UniProt P48729+Q96SW2); experiment: HiBiT degradation assay, CK1α, Procedure A; type: cell-based; settings: six hours incubation
T1 construct: CSNK1A1-HiBit KI HEK293(LgBit) Cells; host or cells: HEK293(LgBit) knock-in cells
Procedure, shortened: as §1

T1 sequence (P48729 whole entry): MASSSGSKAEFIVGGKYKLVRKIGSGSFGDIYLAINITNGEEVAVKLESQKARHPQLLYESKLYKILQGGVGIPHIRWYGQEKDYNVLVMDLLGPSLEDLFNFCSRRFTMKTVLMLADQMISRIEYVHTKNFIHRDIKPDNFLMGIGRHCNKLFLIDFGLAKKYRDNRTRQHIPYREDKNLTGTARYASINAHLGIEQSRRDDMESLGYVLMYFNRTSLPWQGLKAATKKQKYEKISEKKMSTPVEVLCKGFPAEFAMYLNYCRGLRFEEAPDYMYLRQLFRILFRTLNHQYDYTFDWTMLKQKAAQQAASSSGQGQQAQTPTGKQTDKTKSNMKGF
T1 sequence (Q96SW2 whole entry): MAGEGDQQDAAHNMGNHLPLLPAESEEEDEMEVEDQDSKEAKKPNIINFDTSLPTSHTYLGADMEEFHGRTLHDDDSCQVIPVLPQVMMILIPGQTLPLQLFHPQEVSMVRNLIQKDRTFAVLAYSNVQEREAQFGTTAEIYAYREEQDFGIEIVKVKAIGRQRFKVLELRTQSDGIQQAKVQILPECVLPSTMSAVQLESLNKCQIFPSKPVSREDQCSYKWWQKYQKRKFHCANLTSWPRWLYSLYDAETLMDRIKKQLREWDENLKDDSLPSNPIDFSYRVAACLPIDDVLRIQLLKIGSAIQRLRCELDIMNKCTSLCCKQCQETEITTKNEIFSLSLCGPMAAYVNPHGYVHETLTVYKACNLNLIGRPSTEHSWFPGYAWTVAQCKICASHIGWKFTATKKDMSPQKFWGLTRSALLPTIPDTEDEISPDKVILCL
T1 sequence (Q16531 whole entry partner): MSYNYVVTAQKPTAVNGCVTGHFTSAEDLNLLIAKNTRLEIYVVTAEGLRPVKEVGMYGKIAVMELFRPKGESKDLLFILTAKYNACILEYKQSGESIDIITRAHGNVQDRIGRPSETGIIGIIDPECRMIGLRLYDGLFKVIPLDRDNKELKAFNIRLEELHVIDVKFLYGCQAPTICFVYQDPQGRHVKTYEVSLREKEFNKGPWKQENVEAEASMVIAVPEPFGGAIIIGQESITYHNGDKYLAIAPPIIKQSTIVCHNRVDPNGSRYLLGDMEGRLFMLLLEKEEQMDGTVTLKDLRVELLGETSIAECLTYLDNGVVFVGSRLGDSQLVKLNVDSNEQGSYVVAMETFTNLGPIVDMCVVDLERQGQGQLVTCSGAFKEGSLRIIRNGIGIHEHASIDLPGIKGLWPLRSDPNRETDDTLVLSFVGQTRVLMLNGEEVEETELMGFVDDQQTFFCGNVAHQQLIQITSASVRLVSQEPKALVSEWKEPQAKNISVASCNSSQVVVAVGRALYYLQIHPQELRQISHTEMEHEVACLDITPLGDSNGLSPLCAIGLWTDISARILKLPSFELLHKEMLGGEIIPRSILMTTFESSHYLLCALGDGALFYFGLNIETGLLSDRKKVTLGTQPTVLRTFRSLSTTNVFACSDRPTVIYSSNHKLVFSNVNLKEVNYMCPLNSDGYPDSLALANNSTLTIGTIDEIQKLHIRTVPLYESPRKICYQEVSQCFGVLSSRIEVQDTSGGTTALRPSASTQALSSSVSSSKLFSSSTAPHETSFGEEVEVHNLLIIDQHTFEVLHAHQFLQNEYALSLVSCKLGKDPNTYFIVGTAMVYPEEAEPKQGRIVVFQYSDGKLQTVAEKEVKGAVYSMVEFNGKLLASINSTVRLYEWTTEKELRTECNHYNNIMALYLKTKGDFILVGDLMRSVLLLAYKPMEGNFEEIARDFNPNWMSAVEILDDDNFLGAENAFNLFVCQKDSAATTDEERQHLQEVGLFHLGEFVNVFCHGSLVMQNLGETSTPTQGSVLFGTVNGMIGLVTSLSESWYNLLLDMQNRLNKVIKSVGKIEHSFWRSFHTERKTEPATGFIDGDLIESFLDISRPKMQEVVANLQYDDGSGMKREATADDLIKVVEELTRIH
GSPT1, sequence (P15170 whole entry): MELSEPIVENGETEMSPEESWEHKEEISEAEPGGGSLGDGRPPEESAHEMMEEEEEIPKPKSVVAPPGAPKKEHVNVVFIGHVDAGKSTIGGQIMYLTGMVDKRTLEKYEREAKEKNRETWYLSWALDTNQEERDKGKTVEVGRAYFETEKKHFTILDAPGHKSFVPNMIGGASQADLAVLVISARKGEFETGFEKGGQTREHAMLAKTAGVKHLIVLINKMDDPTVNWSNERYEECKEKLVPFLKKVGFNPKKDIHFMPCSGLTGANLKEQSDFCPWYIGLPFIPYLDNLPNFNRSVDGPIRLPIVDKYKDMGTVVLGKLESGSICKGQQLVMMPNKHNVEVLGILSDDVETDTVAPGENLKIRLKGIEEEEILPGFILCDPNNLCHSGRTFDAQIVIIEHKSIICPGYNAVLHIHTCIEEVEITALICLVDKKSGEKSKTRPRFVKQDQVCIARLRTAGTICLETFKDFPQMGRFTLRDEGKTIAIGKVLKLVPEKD
GSPT1, sequence (Q96SW2 whole entry): as the sequence (Q96SW2 whole entry) above
GSPT1, sequence (Q16531 whole entry partner): as the sequence (Q16531 whole entry partner) above

SMILES | DC50 (GSPT1) [nM] | GSPT1 Ymin (GSPT1) | CK1α Ymin (CK1α) | DC50 (CK1α) [nM]
Cn1ncc(-c2ccc3c(c2)CN(C2CCC(=O)NC2=O)C3=O)c1-c1ccccc1Cl (stereo not shown) [Example 132] | ≥ 25 | F (F = >75-100% remaining) | E (E = >25-75% remaining) | < 25
Cn1ncc(-c2ccc3c(c2)CN(C2CCC(=O)NC2=O)C3=O)c1-c1ccc(Oc2cccnc2)cc1 (stereo not shown) [Example 133] | ≥ 25 | F (F = >75-100% remaining) | E (E = >25-75% remaining) | ≥ 25
Cn1ncc(-c2ccc3c(c2)CN(C2CCC(=O)NC2=O)C3=O)c1-c1ccc(F)c(F)c1 (stereo not shown) [Example 134] | ≥ 25 | F (F = >75-100% remaining) | E (E = >25-75% remaining) | < 25
Cn1ncc(-c2ccc3c(c2)CN(C2CCC(=O)NC2=O)C3=O)c1-c1cccc(F)c1 (stereo not shown) [Example 135] | ≥ 25 | F (F = >75-100% remaining) | E (E = >25-75% remaining) | < 25
Cn1ncc(-c2ccc3c(c2)CN(C2CCC(=O)NC2=O)C3=O)c1-c1ccc2ccccc2c1 (stereo not shown) [Example 136] | ≥ 25 | F (F = >75-100% remaining) | D (D = >10- 25% remaining) | < 25
COCc1ccc(-c2c(-c3ccc4c(c3)CN(C3CCC(=O)NC3=O)C4=O)cnn2C)cc1 (stereo not shown) [Example 141] | ≥ 25 | F (F = >75-100% remaining) | E (E = >25-75% remaining) | < 25
Cn1ncc(-c2ccc3c(c2)CN(C2CCC(=O)NC2=O)C3=O)c1-c1ccc(O)cc1 (stereo not shown) [Example 142] | ≥ 25 | F (F = >75-100% remaining) | D (D = >10- 25% remaining) | < 25
COc1ccc(-c2c(-c3ccc4c(c3)CN(C3CCC(=O)NC3=O)C4=O)cnn2C)c(C)c1 (stereo not shown) [Example 143] | ≥ 25 | F (F = >75-100% remaining) | D (D = >10- 25% remaining) | < 25
Cn1ncc(-c2ccc3c(c2)CN(C2CCC(=O)NC2=O)C3=O)c1-c1ccc(-c2ccccc2)cc1 (stereo not shown) [Example 144] | ≥ 25 | F (F = >75-100% remaining) | E (E = >25-75% remaining) | < 25
COc1ccc(-c2c(-c3ccc4c(c3)CN(C3CCC(=O)NC3=O)C4=O)cnn2C)cc1Cl (stereo not shown) [Example 146] | ≥ 25 | E (E = >25-75% remaining) | D (D = >10- 25% remaining) | < 25
Cn1ncc(-c2ccc3c(c2)CN(C2CCC(=O)NC2=O)C3=O)c1-c1cccc(N)c1 (stereo not shown) [Example 147] | ≥ 25 | F (F = >75-100% remaining) | C (C = 0-10% remaining) | < 25
Cn1ncc(-c2ccc3c(c2)CN(C2CCC(=O)NC2=O)C3=O)c1-c1ccc(-n2cccn2)cc1 (stereo not shown) [Example 150] | ≥ 25 | F (F = >75-100% remaining) | D (D = >10- 25% remaining) | < 25
Cc1ccc(-c2c(-c3ccc4c(c3)CN(C3CCC(=O)NC3=O)C4=O)cnn2C)cc1F (stereo not shown) [Example 151] | ≥ 25 | F (F = >75-100% remaining) | E (E = >25-75% remaining) | < 25
Cn1ncc(-c2ccc3c(c2)CN(C2CCC(=O)NC2=O)C3=O)c1-c1ccccc1C#N (stereo not shown) [Example 152] | ≥ 25 | F (F = >75-100% remaining) | E (E = >25-75% remaining) | ≥ 25
Cn1ncc(-c2ccc3c(c2)CN(C2CCC(=O)NC2=O)C3=O)c1-c1ccc(-c2ccncc2)cc1 (stereo not shown) [Example 153] | ≥ 25 | F (F = >75-100% remaining) | D (D = >10- 25% remaining) | < 25
CN1CCN(Cc2ccc(-c3c(-c4ccc5c(c4)CN(C4CCC(=O)NC4=O)C5=O)cnn3C)cc2)CC1 (stereo not shown) [Example 154] | ≥ 25 | F (F = >75-100% remaining) | E (E = >25-75% remaining) | ≥ 25

Continued, values first:

DC50 (GSPT1) [nM] | GSPT1 Ymin (GSPT1) | CK1α Ymin (CK1α) | DC50 (CK1α) [nM] | SMILES
≥ 25 | F (F = >75-100% remaining) | E (E = >25-75% remaining) | ≥ 25 | O=C1CCC(N2Cc3cc(-c4c[nH]nc4-c4ccccn4)ccc3C2=O)C(=O)N1 (stereo not shown) [Example 118, 3-(1-oxo-5-(3-(pyridin-2-yl)-1H-pyrazol-4-yl)isoindolin-2-yl)piperidine-2,6-dione]
≥ 25 | F (F = >75-100% remaining) | E (E = >25-75% remaining) | ≥ 25 | Cn1ncc(-c2ccc3c(c2)CN(C2CCC(=O)NC2=O)C3=O)c1-c1ccc(Cl)c(C#N)c1 (stereo not shown) [Example 119]
≥ 25 | F (F = >75-100% remaining) | E (E = >25-75% remaining) | ≥ 25 | Cn1ncc(-c2ccc3c(c2)CN(C2CCC(=O)NC2=O)C3=O)c1-c1cc(F)ccc1Cl (stereo not shown) [Example 120]
≥ 25 | F (F = >75-100% remaining) | C (C = 0-10% remaining) | ≥ 25 | CN(C)C(=O)c1ccc(-c2c(-c3ccc4c(c3)CN(C3CCC(=O)NC3=O)C4=O)cnn2C)cc1 (stereo not shown) [Example 121]
≥ 25 | F (F = >75-100% remaining) | E (E = >25-75% remaining) | ≥ 25 | CNC(=O)c1cccc(-c2c(-c3ccc4c(c3)CN(C3CCC(=O)NC3=O)C4=O)cnn2C)c1 (stereo not shown) [Example 122]
≥ 25 | F (F = >75-100% remaining) | E (E = >25-75% remaining) | < 25 | Cn1ncc(-c2ccc3c(c2)CN(C2CCC(=O)NC2=O)C3=O)c1-c1cccc(C#N)c1 (stereo not shown) [Example 123]
≥ 25 | F (F = >75-100% remaining) | C (C = 0-10% remaining) | < 25 | Cn1ncc(-c2ccc3c(c2)CN(C2CCC(=O)NC2=O)C3=O)c1-c1ccc(N)cc1 (stereo not shown) [Example 124]
≥ 25 | F (F = >75-100% remaining) | E (E = >25-75% remaining) | < 25 | Cc1c(F)cccc1-c1c(-c2ccc3c(c2)CN(C2CCC(=O)NC2=O)C3=O)cnn1C (stereo not shown) [Example 125]
≥ 25 | F (F = >75-100% remaining) | D (D = >10- 25% remaining) | < 25 | Cc1ccsc1-c1c(-c2ccc3c(c2)CN(C2CCC(=O)NC2=O)C3=O)cnn1C (stereo not shown) [Example 126]
≥ 25 | F (F = >75-100% remaining) | E (E = >25-75% remaining) | < 25 | Cn1ncc(-c2ccc3c(c2)CN(C2CCC(=O)NC2=O)C3=O)c1-c1ccccc1N (stereo not shown) [Example 127]
≥ 25 | F (F = >75-100% remaining) | D (D = >10- 25% remaining) | < 25 | Cc1csc(-c2c(-c3ccc4c(c3)CN(C3CCC(=O)NC3=O)C4=O)cnn2C)c1 (stereo not shown) [Example 128]
≥ 25 | F (F = >75-100% remaining) | E (E = >25-75% remaining) | < 25 | Cn1ncc(-c2ccc3c(c2)CN(C2CCC(=O)NC2=O)C3=O)c1-c1cccc(Cl)c1 (stereo not shown) [Example 129]
≥ 25 | F (F = >75-100% remaining) | E (E = >25-75% remaining) | < 25 | Cn1ncc(-c2ccc3c(c2)CN(C2CCC(=O)NC2=O)C3=O)c1-c1ccc(F)cc1F (stereo not shown) [Example 130]
≥ 25 | F (F = >75-100% remaining) | E (E = >25-75% remaining) | < 25 | Cn1ncc(-c2ccc3c(c2)CN(C2CCC(=O)NC2=O)C3=O)c1-c1ccsc1Cl (stereo not shown) [Example 131]
< 25 | F (F = >75-100% remaining) | E (E = >25-75% remaining) | < 25 | COc1ccc(C)cc1-c1c(-c2ccc3c(c2)CN(C2CCC(=O)NC2=O)C3=O)cnn1C (stereo not shown) [Example 137]
< 25 | F (F = >75-100% remaining) | E (E = >25-75% remaining) | ≥ 25 | Cn1ncc(-c2ccc3c(c2)CN(C2CCC(=O)NC2=O)C3=O)c1-c1cccc(C(N)=O)c1 (stereo not shown) [Example 138]
< 25 | F (F = >75-100% remaining) | E (E = >25-75% remaining) | ≥ 25 | Cn1ncc(-c2ccc3c(c2)CN(C2CCC(=O)NC2=O)C3=O)c1-c1cc(F)cc(F)c1 (stereo not shown) [Example 139]
< 25 | E (E = >25-75% remaining) | E (E = >25-75% remaining) | ≥ 25 | CN(C)C(=O)c1cccc(-c2c(-c3ccc4c(c3)CN(C3CCC(=O)NC3=O)C4=O)cnn2C)c1 (stereo not shown) [Example 140]
< 25 | F (F = >75-100% remaining) | C (C = 0-10% remaining) | < 25 | Cn1ncc(-c2ccc3c(c2)CN(C2CCC(=O)NC2=O)C3=O)c1-c1ccccc1-c1ccccc1 (stereo not shown) [Example 145]
< 25 | F (F = >75-100% remaining) | E (E = >25-75% remaining) | < 25 | Cn1ncc(-c2ccc3c(c2)CN(C2CCC(=O)NC2=O)C3=O)c1-c1ccc(Cl)cc1Cl (stereo not shown) [Example 148]
< 25 | F (F = >75-100% remaining) | D (D = >10- 25% remaining) | < 25 | COc1ccc2cc(-c3c(-c4ccc5c(c4)CN(C4CCC(=O)NC4=O)C5=O)cnn3C)ccc2c1 (stereo not shown) [Example 149]
